The subject of the assay is IL-12 production of LPS-activated monocytes. As to the kind of experiment: Stimulation of human monocytes with lipopolysaccharide to secrete IL-12 (IL-12 sandwich ELISA of culture supernatants). Format: cell-based. The following applies: for inhibition at 0.05 µg/mL / inhibition at 0.5 µg/mL / inhibition at 5 µg/mL: Homo sapiens, Monocyte, read-out: % inhibition of the IL-12 production of the control without inhibitors; for inhibition at 0.05 µg/mL / inhibition at 0.5 µg/mL / inhibition at 5 µg/mL / % inhibition of the IL-12 production of the control without inhibitors / IL-12 production: LPS 20 μg/ml, 24 hours; for action on the IL-12 production of LPS-stimulated monocytes: Tables 2 to 4. Here is the method: Stimulation of Human Monocytes with Lipopolysaccharide to Secrete IL-12
Human monocytes were isolated from peripheral blood mononuclear cells (PBMC) which had been obtained from heparinized full blood by a Ficoll density gradient centrifugation. To that end, the PBMC were incubated with a monoclonal antibody directed against the monocyte-specific surface molecule CD14 and to which superparamagnetic microbeads (Miltenyi Biotech, Bergisch Gladbach) were coupled. For the positive selection of the labelled monocytes from the PBMC cell mixture, the total cell suspension was applied to a column having a ferromagnetic carrier matrix, and the column was placed in a magnetic field. The cells charged with microbeads were thus bonded to the carrier matrix, while unlabelled cells passed through the column and were discarded. After removing the matrix from the magnetic field, the antibody-charged cells were eluted by flushing the now demagnetised column with buffer. The purity of the resulting CD14-positive monocyte population was approximately from 95 to 98%. The monocytes were incubated for one hour at 37° C. and 5% CO2 in a density of 10^6cells/ml culture medium (RPMI, supplemented with 10% foetal calf serum) with the test substances dissolved in DMSO. 20 μg/ml of LPS from E. coli were then added. After 24 hours, cell-free culture supernatants were collected and tested for their IL-12 content.
The concentration of IL-12 in the cell culture supernatants was determined by sandwich ELISA's using two anti-IL-12 monoclonal antibodies (Biosource Europe, Fleurus, Belgium). A reference standard curve with human IL-12 was included. The detection limit of the IL-12 ELISA was 10 pg/ml.

The mark [1] stands for this setting: test substance 0.05 μg/ml, IL-10 0 pg/ml.
Setting [2] is: test substance 0.5 μg/ml, IL-10 0 pg/ml.
The mark [3] stands for this setting: test substance 5 μg/ml, IL-10 0 pg/ml.
Setting [4] is: test substance 0.05 μg/ml combined with IL-10 5 pg/ml.
[5] abbreviates: test substance 0.05 μg/ml combined with IL-10 50 pg/ml.
[6] abbreviates: test substance 0.5 μg/ml combined with IL-10 5 pg/ml.
Setting [7] is: test substance 0.5 μg/ml combined with IL-10 50 pg/ml.
Setting [8] is: test substance 5 μg/ml combined with IL-10 5 pg/ml.
Setting [9] is: test substance 5 μg/ml combined with IL-10 50 pg/ml.
Where [10] appears, read: test substance 0.005 μg/ml combined with IL-10 5 pg/ml.
Where [11] appears, read: test substance 0.005 μg/ml combined with IL-10 50 pg/ml.
The mark [12] stands for this setting: test substance 0.005 μg/ml, IL-10 0 pg/ml.

“And” between values parts separate entries of the source, which are not always exact repeats. Equal entries are not always repeated.

`O=C1CCC(N2Cc3ccccc3C2=O)C(=O)N1` (centres unmarked) [EM 12, 3-(1-oxo-1,3-dihydro-isoindol-2-yl)-piperidine-2,6-dione]: the “action on the IL-12 production of LPS-stimulated monocytes” value (“action on the IL-12 production” below) was “dose-dependent inhibitory action”. Moreover, under setting [1], the inhibition at 0.05 µg/mL stood at 47% and the IL-12 production came out at 3478 pg/mL. Under setting [2], the inhibition at 0.5 µg/mL amounted to 68% and the IL-12 production is 2098 pg/mL. For the same compound, under setting [3], the inhibition at 5 µg/mL was 66% and the IL-12 production was 2220 pg/mL. Under setting [4], the “% inhibition of the IL-12 production of the control without inhibitors” value (“% inhibition … of the control without inhibitors” for short) is recorded as 55% and the IL-12 production was found to be 2944 pg/mL. Also, under setting [5], the “% inhibition … of the control without inhibitors” value was determined as 91% and the IL-12 production amounted to 589 pg/mL. For the same compound, under setting [6], the “% inhibition … of the control without inhibitors” value is on record as 78% and the IL-12 production turned out to be 1462 pg/mL. For the same compound, under setting [7], the “% inhibition … of the control without inhibitors” value is 90% and the IL-12 production was 649 pg/mL. Moreover, under setting [8], the “% inhibition … of the control without inhibitors” value came out at 81% and the IL-12 production was 1271 pg/mL. In addition, under setting [9], the “% inhibition … of the control without inhibitors” value is on record as 92% and the IL-12 production came out at 546 pg/mL.

For the compound `CC1(N2C(=O)c3ccccc3C2=O)CCC(=O)NC1=O` (stereo not drawn) [EM 978, α-methyl thalidomide], the “action on the IL-12 production” value is “dose-dependent inhibitory action”. Besides, under setting [10], the “% inhibition … of the control without inhibitors” value is given as 40% and the IL-12 production was 2922 pg/mL. Under setting [11], the “% inhibition … of the control without inhibitors” value is 53% and the IL-12 production was 2302 pg/mL. In addition, under setting [12], the “% inhibition … of the control without inhibitors” value stood at 7% and the IL-12 production amounted to 4571 pg/mL. Besides, under setting [4], the “% inhibition … of the control without inhibitors” value is on record as 61% and the IL-12 production came out at 1897 pg/mL. Under setting [5], the “% inhibition … of the control without inhibitors” value is recorded as 68% and the IL-12 production is 1555 pg/mL. For the same compound, under setting [1], the “% inhibition … of the control without inhibitors” value is 35% and the IL-12 production was determined as 3161 pg/mL. For the same compound, under setting [6], the “% inhibition … of the control without inhibitors” value stood at 94% and the IL-12 production came out at 272 pg/mL. Under setting [7], the “% inhibition … of the control without inhibitors” value came out at 96% and the IL-12 production stood at 191 pg/mL. Also, under setting [2], the “% inhibition … of the control without inhibitors” value is reported as 91% and the IL-12 production was found to be 439 pg/mL. In addition, the “concentration lower than in the case of thalidomide or EM 12 to achieve the same effects” value (versus thalidomide or EM 12) came out at 10 times lower.

In the case of `O=C1CCC(N2C(=O)c3ccccc3C2=O)C(=O)N1` (centres unmarked) [Thalidomide, 2-(2,6-dioxo-piperidin-3-yl)-isoindole-1,3-dione, reference compound], the “action on the IL-12 production” value was “dose-dependent inhibitory action”. Further, under setting [1], the inhibition at 0.05 µg/mL is 45% and the IL-12 production came to 3369 pg/mL. Under setting [2], the inhibition at 0.5 µg/mL was found to be 67% and the IL-12 production was 2037 pg/mL. For the same compound, under setting [3], the inhibition at 5 µg/mL amounted to 76% and the IL-12 production came to 1481 pg/mL. Under setting [4], the “% inhibition … of the control without inhibitors” value came to 68% and the IL-12 production is 1958 pg/mL. Also, under setting [5], the “% inhibition … of the control without inhibitors” value is reported as 87% and the IL-12 production was 809 pg/mL. Also, under setting [6], the “% inhibition … of the control without inhibitors” value is on record as 81% and the IL-12 production was determined as 1147 pg/mL. Under setting [7], the “% inhibition … of the control without inhibitors” value was determined as 90% and the IL-12 production was 618 pg/mL. Also, under setting [8], the “% inhibition … of the control without inhibitors” value is given as 83% and the IL-12 production is 1057 pg/mL. Also, under setting [9], the “% inhibition … of the control without inhibitors” value is reported as 93% and the IL-12 production was 447 pg/mL.

Consider “IL-10: anti-inflammatory cytokine originally described as cytokine synthesis inhibitory factor”, for which the EC50 is 0.05 ng/mL and the “action on the IL-12 production” value is recorded as “dose-dependent inhibitory action”. Moreover, the IL-12 production (IL-10 5 pg/ml alone (thalidomide compound 0 μg/ml)) is 5637 pg/mL and 4393 pg/mL and 4581 pg/mL. For the same compound, the “% inhibition … of the control without inhibitors” value (IL-10 50 pg/ml alone (thalidomide compound 0 μg/ml)) is 58% and 47% and 81%.

The term inhibition denotes the relative decrease from the control value, in per cent. Broadly, the EC50 is the concentration needed to bring the measured effect to its halfway point. A higher EC50 goes with lower potency in that assay.

For the origin of these results see patent US20030021763A1, “Method for the treatment and/or prophylaxis of diseases caused by IL-12” (Gruenenthal GmbH., priority 1999, published 2003).
